Data: US20240384350A1, “METHODS OF TREATING CANCER WITH KINASE INHIBITORS” (BOARD OF REGENTS, THE UNIVERSITY OF TEXAS SYSTEM, priority 2021, published 2024)

Legend:
Assay in all cases: Ba/F3 drug screening, Cell Titer Glo, IC50 Mut/WT
Format in all cases: cell-based
EGFR L858R = target: T1, EGFR L858R (Homo sapiens, UniProt P00533, L858R); details: Classical-Like, 72 hours
T1 construct: expressed in transfected cells; host or cells: Ba/F3 cells, retroviral pBabe-Puro vector
Experimental: Data represent the ratio of the IC50 value for a given TKI for cells with a classical-like EGFR mutation to the IC50 value for cells with wildtype EGFR.
(§1) Ba/F3 cell generation, drug screening, and IC50 approximations. Ba/F3 cells were obtained as a gift from Dr. Gordon Mills (MD Anderson Cancer Center), and maintained in RPMI (Sigma) containing 10% FBS, 1% penicillin/streptomycin, and 10 ng/ml recombinant mIL-3 (R&D Biosystems). To establish stable Ba/F3 cell lines, Ba/F3 cells were transduced with retroviruses containing mutant EGFR plasmids for 12-24 hours.
After 48-72 hours of transduction, 2 μg/ml puromycin (Invitrogen) was added to Ba/F3 cell lines in complete RPMI. To select for EGFR positive cell lines, cells were stained with PE-EGFR (Biolegend) and sorted by FACS. After sorting, EGFR positive cells were maintained in RPMI containing 10% FBS, 1% penicillin/streptomycin, and 1 ng/ml EGF to support cell viability. […] Shortly, cells were plated in 384-well plates (Greiner Bio-One) at 2000-3000 cells per well in technical triplicate. Seven different concentrations of TKIs or DMSO vehicle were added to reach a final volume of 40 μL per well. After 72 hours, 11 μL of Cell Titer Glo (Promega) was added to each well. Plates were incubated for a minimum of 10 minutes, and bioluminescence was determined using a FLUOstar OPTIMA plate reader (BMG LABTECH). Raw bioluminescence values were normalized to DMSO control treated cells, and values were plotted in GraphPad Prism. […] Drug screens were performed in technical triplicate on each plate and either duplicate or triplicate biological replicates.

EGFR K754E = target: T2, EGFR K754E (Homo sapiens, UniProt P00533, K754E); details: Classical-Like, 72 hours
T2 construct: expressed in transfected cells; host or cells: Ba/F3 cells, retroviral pBabe-Puro vector

EGFR A767insASV = target: T3, EGFR A767insASV (Homo sapiens, UniProt P00533, DUP767-769); details: Ex20, 72 hours
T3 construct: expressed in transfected cells; host or cells: Ba/F3 cells, retroviral pBabe-Puro vector

EGFR G719A T790M = target: T4, EGFR G719A T790M (Homo sapiens, UniProt P00533, G719A/T790M); details: T790M-like-3S, 72 hours
T4 construct: expressed in transfected cells; host or cells: Ba/F3
Experimental: Data represent the ratio of the IC50 value for a given TKI for cells with a T790M-like-3S EGFR mutation to the IC50 value for cells with wildtype EGFR.
as §1
(§2) After 48-72 hours of transduction, 2 μg/ml puromycin (Invitrogen) was added to Ba/F3 cell lines in complete RPMI. To select for EGFR positive cell lines, cells were stained with PE-EGFR (Biolegend) and sorted by FACS. After sorting, EGFR positive cells were maintained in RPMI containing 10% FBS, 1% penicillin/streptomycin, and 1 ng/ml EGF to support cell viability. Drug screening was performed as previously described^41,42. Shortly, cells were plated in 384-well plates (Greiner Bio-One) at 2000-3000 cells per well in technical triplicate. Seven different concentrations of TKIs or DMSO vehicle were added to reach a final volume of 40 μL per well. After 72 hours, 11 μL of Cell Titer Glo (Promega) was added to each well. Plates were incubated for a minimum of 10 minutes, and bioluminescence was determined using a FLUOstar OPTIMA plate reader (BMG LABTECH). Raw bioluminescence values were normalized to DMSO control treated cells, and values were plotted in GraphPad Prism. […] Drug screens were performed in technical triplicate on each plate and either duplicate or triplicate biological replicates.

EGFR S768I/T790M = target: T5, EGFR S768I/T790M (Homo sapiens, UniProt P00533, S768I/T790M); details: T790M-like-3S, 72 hours
T5 construct: expressed in transfected cells; host or cells: Ba/F3

EGFR G724S T790M = target: T6, EGFR G724S T790M (Homo sapiens, UniProt P00533, G724S/T790M); details: T790M-like-3R, 72 hours
T6 construct: expressed in transfected cells; host or cells: Ba/F3

EGFR L858R T790M L718V = target: T7, EGFR L858R T790M L718V (Homo sapiens, UniProt P00533, L718V/L858R/T790M); details: T790M-like-3R, 72 hours
T7 construct: expressed in transfected cells; host or cells: Ba/F3
Experimental: Data represent the ratio of the IC50 value for a given TKI for cells with a T790M-like-3R EGFR mutation to the IC50 value for cells with wildtype EGFR.
as §1
After 48-72 hours of transduction, 2 μg/ml puromycin (Invitrogen) was added to Ba/F3 cell lines in complete RPMI. To select for EGFR positive cell lines, cells were stained with PE-EGFR (Biolegend) and sorted by FACS. After sorting, EGFR positive cells were maintained in RPMI containing 10% FBS, 1% penicillin/streptomycin, and 1 ng/ml EGF to support cell viability. […] Shortly, cells were plated in 384-well plates (Greiner Bio-One) at 2000-3000 cells per well in technical triplicate. Seven different concentrations of TKIs or DMSO vehicle were added to reach a final volume of 40 μL per well. After 72 hours, 11 μL of Cell Titer Glo (Promega) was added to each well. Plates were incubated for a minimum of 10 minutes, and bioluminescence was determined using a FLUOstar OPTIMA plate reader (BMG LABTECH). Raw bioluminescence values were normalized to DMSO control treated cells, and values were plotted in GraphPad Prism. […] Drug screens were performed in technical triplicate on each plate and either duplicate or triplicate biological replicates. […] Statistical differences between groups were determined by ANOVA as described in the figure legends.

EGFR Ex19del T790M C797S = target: T8, EGFR Ex19del T790M C797S (Homo sapiens, UniProt P00533, C797S/DEL746-750/T790M); details: T790M-like-3R, 72 hours
T8 construct: expressed in transfected cells; host or cells: Ba/F3

EGFR E709_T710del insD = target: T9, EGFR E709_T710del insD (Homo sapiens, UniProt P00533, DEL709-709/T710D); details: Ba/F3 cells, EGFR E709_T710del insD (PACC), Mut/WT
T9 construct: expressed in transfected cells; host or cells: Ba/F3
Experimental: (§3) Data represent the ratio of the IC50 value for a given TKI for cells with a PACC EGFR mutation to the IC50 value for cells with wildtype EGFR.
as §1, §2

EGFR E709K G719S = target: T10, EGFR E709K G719S (Homo sapiens, UniProt P00533, E709K/G719S); details: Ba/F3 cells, EGFR E709K G719S (PACC), Mut/WT
T10 construct: expressed in transfected cells; host or cells: Ba/F3
Experimental: as §3, §1, §2

EGFR G719A = target: T11, EGFR G719A (Homo sapiens, UniProt P00533, G719A); details: Ba/F3 cells, EGFR G719A (PACC), Mut/WT
T11 construct: expressed in transfected cells; host or cells: Ba/F3
Experimental: as §3, §1, §2

EGFR G724S = target: T12, EGFR G724S (Homo sapiens, UniProt P00533, G724S); details: Ba/F3 cells, EGFR G724S (PACC), Mut/WT
T12 construct: expressed in transfected cells; host or cells: Ba/F3

EGFR I740dupIPVAK = details: Ba/F3 cells, EGFR I740dupIPVAK (PACC), Mut/WT
EGFR L747S = target: T13, EGFR L747S (Homo sapiens, UniProt P00533, L747S); details: Ba/F3 cells, EGFR L747S (PACC), Mut/WT
T13 construct: expressed in transfected cells; host or cells: Ba/F3

EGFR S768I = target: T14, EGFR S768I (Homo sapiens, UniProt P00533, S768I); details: Ba/F3 cells, EGFR S768I (PACC), Mut/WT
T14 construct: expressed in transfected cells; host or cells: Ba/F3

EGFR V769L = target: T15, EGFR V769L (Homo sapiens, UniProt P00533, V769L); details: Ba/F3 cells, EGFR V769L (PACC), Mut/WT
T15 construct: expressed in transfected cells; host or cells: Ba/F3
Experimental: as §3, §1, §2

EGFR V774M = target: T16, EGFR V774M (Homo sapiens, UniProt P00533, V774M); details: Ba/F3 cells, EGFR V774M (PACC), Mut/WT
T16 construct: host or cells: Ba/F3
Experimental: as §3, §1, §2

EGFR R776C = target: T17, EGFR R776C (Homo sapiens, UniProt P00533, R776C); details: Ba/F3 cells, EGFR R776C (PACC), Mut/WT
T17 construct: host or cells: Ba/F3

EGFR Ex19del G724S = target: T18, EGFR Ex19del G724S (Homo sapiens, UniProt P00533, DEL746-750/G724S); details: Ba/F3 cells, EGFR Ex19del G724S (PACC), Mut/WT
T18 construct: expressed in transfected cells; host or cells: Ba/F3

EGFR L858R/L792H = target: T19, EGFR L858R/L792H (Homo sapiens, UniProt P00533, L792H/L858R); details: Ba/F3 cells, EGFR L858R/L792H (PACC), Mut/WT
T19 construct: expressed in transfected cells; host or cells: Ba/F3
Experimental: as §3, §1, §2

EGFR Ex19del G796S = target: T20, EGFR Ex19del G796S (Homo sapiens, UniProt P00533, DEL746-750/G796S); details: Ba/F3 cells, EGFR Ex19del G796S (PACC), Mut/WT
T20 construct: expressed in transfected cells; host or cells: Ba/F3

EGFR Ex19del/C797S = target: T21, EGFR Ex19del/C797S (Homo sapiens, UniProt P00533, C797S/DEL746-750); details: Ba/F3 cells, EGFR Ex19del/C797S (PACC), Mut/WT
T21 construct: expressed in transfected cells; host or cells: Ba/F3

EGFR Ex19del L718V = target: T22, EGFR Ex19del L718V (Homo sapiens, UniProt P00533, DEL746-750/L718V); details: Ba/F3 cells, EGFR Ex19del L718V (PACC), Mut/WT
T22 construct: expressed in transfected cells; host or cells: Ba/F3

EGFR Ex19del L718Q = target: T23, EGFR Ex19del L718Q (Homo sapiens, UniProt P00533, DEL746-750/L718Q); details: Ba/F3 cells, EGFR Ex19del L718Q (PACC), Mut/WT
T23 construct: expressed in transfected cells; host or cells: Ba/F3
Experimental: as §3, §1, §2

EGFR L858R G724S = target: T24, EGFR L858R G724S (Homo sapiens, UniProt P00533, G724S/L858R); details: Ba/F3 cells, EGFR L858R G724S (PACC), Mut/WT
T24 construct: expressed in transfected cells; host or cells: Ba/F3 (retroviral transduction, pBabe-Puro based vectors)

EGFR Ex19del T854I = target: T25, EGFR Ex19del T854I (Homo sapiens, UniProt P00533, DEL746-750/T854I); details: Ba/F3 cells, EGFR Ex19del T854I (PACC), Mut/WT
T25 construct: expressed in transfected cells; host or cells: Ba/F3 (retroviral transduction, pBabe-Puro based vectors)

Structure (SMILES) | ratio of IC50 for cells with mutant EGFR to IC50 for cells with wildtype EGFR (Mut/WT) (EGFR L858R) | ratio of IC50 for cells with mutant EGFR to IC50 for cells with wildtype EGFR (Mut/WT) (EGFR K754E) | ratio of IC50 for cells with mutant EGFR to IC50 for cells with wildtype EGFR (Mut/WT) (EGFR A767insASV) | ratio of IC50 for cells with mutant EGFR to IC50 for cells with wildtype EGFR (Mut/WT) (EGFR G719A T790M) | ratio of IC50 for cells with mutant EGFR to IC50 for cells with wildtype EGFR (Mut/WT) (EGFR S768I/T790M) | ratio of IC50 for cells with mutant EGFR to IC50 for cells with wildtype EGFR (Mut/WT) (EGFR G724S T790M) | ratio of IC50 for cells with mutant EGFR to IC50 for cells with wildtype EGFR (Mut/WT) (EGFR L858R T790M L718V) | ratio of IC50 for cells with mutant EGFR to IC50 for cells with wildtype EGFR (Mut/WT) (EGFR Ex19del T790M C797S) | ratio of the IC50 value for cells with a PACC EGFR mutation to the IC50 value for cells with wildtype EGFR (EGFR E709_T710del insD) | ratio of the IC50 value for cells with a PACC EGFR mutation to the IC50 value for cells with wildtype EGFR (EGFR E709K G719S) | ratio of the IC50 value for cells with a PACC EGFR mutation to the IC50 value for cells with wildtype EGFR (EGFR G719A) | ratio of the IC50 value for cells with a PACC EGFR mutation to the IC50 value for cells with wildtype EGFR (EGFR G724S) | ratio of the IC50 value for cells with a PACC EGFR mutation to the IC50 value for cells with wildtype EGFR (EGFR I740dupIPVAK) | ratio of the IC50 value for cells with a PACC EGFR mutation to the IC50 value for cells with wildtype EGFR (EGFR L747S) | ratio of the IC50 value for cells with a PACC EGFR mutation to the IC50 value for cells with wildtype EGFR (EGFR S768I) | ratio of the IC50 value for cells with a PACC EGFR mutation to the IC50 value for cells with wildtype EGFR (EGFR V769L) | ratio of the IC50 value for cells with a PACC EGFR mutation to the IC50 value for cells with wildtype EGFR (EGFR V774M) | ratio of the IC50 value for cells with a PACC EGFR mutation to the IC50 value for cells with wildtype EGFR (EGFR R776C) | ratio of the IC50 value for cells with a PACC EGFR mutation to the IC50 value for cells with wildtype EGFR (EGFR Ex19del G724S) | ratio of the IC50 value for cells with a PACC EGFR mutation to the IC50 value for cells with wildtype EGFR (EGFR L858R/L792H) | further results
C=CC(=O)N1CC[C@@H](Oc2nc(Nc3ccc(N4CCC(N5CCN(C)CC5)CC4)cc3)c(C(N)=O)nc2CC)C1 [Naquotinib] | 0.07863 | 0.04901 | 1.61 | 0.08702 | 0.1426 | 0.1395 | 0.6413 | 14.64 | 0.497 | 0.5339 | 0.1344 | 1.174 | 0.5025 | 0.8911 | 1.09 | 1.624 | 0.2862 | 4.27 | 0.8866 | 0.2624 | ratio of the IC50 value for cells with a PACC EGFR mutation to the IC50 value for cells with wildtype EGFR (EGFR Ex19del G796S): 1.137; ratio of the IC50 value for cells with a PACC EGFR mutation to the IC50 value for cells with wildtype EGFR (EGFR Ex19del/C797S): 11.45; ratio of the IC50 value for cells with a PACC EGFR mutation to the IC50 value for cells with wildtype EGFR (EGFR Ex19del L718V): 0.1035; ratio of the IC50 value for cells with a PACC EGFR mutation to the IC50 value for cells with wildtype EGFR (EGFR Ex19del L718Q): 0.05586; ratio of the IC50 value for cells with a PACC EGFR mutation to the IC50 value for cells with wildtype EGFR (EGFR L858R G724S): 0.5799; ratio of the IC50 value for cells with a PACC EGFR mutation to the IC50 value for cells with wildtype EGFR (EGFR Ex19del T854I): 1.06
C=CC(=O)N[C@H]1C=C(C)c2c(-c3cnc4ccccc4c3)c3c(N)ncnc3n2C1 [TAS 6417] | 0.003918 | 0.004475 | 0.1359 | 0.01296 | 0.1153 | 0.1693 | 2.011 | 3.055 | 0.3335 | 0.007578 | 0.01801 | 3.055 | 0.3555 | 0.06482 | 0.0846 | 0.159 | 0.3282 | 0.1072 | 0.2809 | 0.004611 | ratio of the IC50 value for cells with a PACC EGFR mutation to the IC50 value for cells with wildtype EGFR (EGFR Ex19del G796S): 0.06554; ratio of the IC50 value for cells with a PACC EGFR mutation to the IC50 value for cells with wildtype EGFR (EGFR Ex19del/C797S): 1.093; ratio of the IC50 value for cells with a PACC EGFR mutation to the IC50 value for cells with wildtype EGFR (EGFR Ex19del L718V): 0.0009364; ratio of the IC50 value for cells with a PACC EGFR mutation to the IC50 value for cells with wildtype EGFR (EGFR Ex19del L718Q): 2.333; ratio of the IC50 value for cells with a PACC EGFR mutation to the IC50 value for cells with wildtype EGFR (EGFR L858R G724S): 0.01631; ratio of the IC50 value for cells with a PACC EGFR mutation to the IC50 value for cells with wildtype EGFR (EGFR Ex19del T854I): 0.0152
Cc1cc(C(=O)Nc2nc3cccc(Cl)c3n2[C@@H]2CCCCN(C(=O)/C=C/CN(C)C)C2)ccn1 [Nazartinib] | 0.017 | 0.04749 | 0.6382 | 0.02653 | 0.0197 | 0.1867 | 0.6592 | 5.557 | 0.1584 | 0.4195 | 0.06775 | 0.869 | 0.1352 | 0.06302 | 0.5273 | 0.1771 | 0.1179 | 0.2846 | 1.068 | 0.3145 | ratio of the IC50 value for cells with a PACC EGFR mutation to the IC50 value for cells with wildtype EGFR (EGFR Ex19del G796S): 0.6604; ratio of the IC50 value for cells with a PACC EGFR mutation to the IC50 value for cells with wildtype EGFR (EGFR Ex19del/C797S): 3.067; ratio of the IC50 value for cells with a PACC EGFR mutation to the IC50 value for cells with wildtype EGFR (EGFR Ex19del L718V): 0.04632; ratio of the IC50 value for cells with a PACC EGFR mutation to the IC50 value for cells with wildtype EGFR (EGFR Ex19del L718Q): 0.03801; ratio of the IC50 value for cells with a PACC EGFR mutation to the IC50 value for cells with wildtype EGFR (EGFR L858R G724S): 0.009244; ratio of the IC50 value for cells with a PACC EGFR mutation to the IC50 value for cells with wildtype EGFR (EGFR Ex19del T854I): 1.135
